In patent US5607922A, “1,5-anhydrohexitol nucleoside analogues” (Stichting Rega VZW, priority 1992, dated 1997):
In brackets after ≈: the same amount, converted by molar mass. Like-named read-outs stand apart in the source and are kept apart here.

Experiments:
[1] = test system: herpes simplex virus type 1 (HSV-1) (KOS); experiment: microbe, parasite or virus in culture; assay type: cell-based; details: Human alphaherpesvirus 1, E6SM
[2] = test system: herpes simplex virus 2 (HSV-2) (G); experiment: microbe, parasite or virus in culture; assay type: cell-based; details: Human alphaherpesvirus 2, E6SM
vaccinia virus (VV) = experiment: microbe, parasite or virus in culture; assay type: cell-based; details: Orthopoxvirus vaccinia, E6SM
[3] = test system: Vesicular stomatitis virus; experiment: microbe, parasite or virus in culture; assay type: cell-based; details: E6SM, read-out: Minimum inhibitory concentration Vesicular stomatitis virus
in vitro = details: human, e6 sm cells, Minimum cytotoxic concentration
herpes viruses = details: in words; literature; cited from earlier work
herpes simplex (1 and 2) = experiment: Anti-herpes simplex (1 and 2) activity, statement in words; assay type: cell-based, herpes simplex virus
[4] = Table I, E6 SM cells, required to reduce virus-induced cytopathogenesis by 50%, read-out: Minimum inhibiting concentration ED50 HSV-1 (KOS)
[5] = read-out: Minimum inhibitory concentration Herpes simplex virus-1 (KOS)
[6] = Table I, E6 SM cells, required to reduce virus-induced cytopathogenesis by 50%, read-out: Minimum inhibiting concentration ED50 HSV-2 (G)
[7] = read-out: Minimum inhibitory concentration Herpes simplex virus-2 (G)
[8] = read-out: Minimum inhibiting concentration ED50 VV
[9] = read-out: Minimum inhibitory concentration Vaccinia virus
[10] = Table III, required to cause a microscopically detectable alteration of normal cell morphology

Row | Structure (SMILES) | EC50 [1, 4] | EC50 [1, 5] | EC50 [2, 6] | EC50 [2, 7] | EC50 (vaccinia virus (VV); [8]) | EC50 (vaccinia virus (VV); [9]) | EC50 [3] | MCC (in vitro) | MCC (in vitro; [10]) | anti-viral activity against herpes viruses (herpes viruses) | anti-herpes simplex (1 and 2) activity (herpes simplex (1 and 2))
1 | Nc1nccc2c1ncn2[C@@H]1C[C@H](CO)[C@@H](O)[C@H]1O (relative stereo) [C-c^3 Ado, carbocyl 3-deaza adenosine] | > 400 µg/mL | > 200 µg/mL | 40 µg/mL (≈ 151 µM) | > 200 µg/mL | 0.7 µg/mL (≈ 2.65 µM) | 0.2 µg/mL (≈ 0.757 µM) | 0.2 µg/mL (≈ 0.757 µM) | > 400 µg/mL | ≥ 200 µg/mL | – | –
2 | Nc1ncnc2c1ncn2C[C@H](O)CO [(S)-DHPA, (S)-9-(2,3-dihydroxypropyl)-adenine] | 70 µg/mL (≈ 335 µM) | > 200 µg/mL | 300 µg/mL (≈ 1430 µM) | > 200 µg/mL | – | 20 µg/mL (≈ 95.6 µM) | 20 µg/mL (≈ 95.6 µM) | > 400 µg/mL | ≥ 200 µg/mL | – | –
3 | O=c1[nH]c(=O)n([C@H]2C[C@H](O)[C@@H](CO)O2)cc1/C=C/Br [BVDU, E-5-(2-bromovinyl)-2'-deoxyuridine] | – | 0.004 µg/mL (≈ 0.012 µM) | 10 µg/mL (≈ 30 µM) | > 200 µg/mL | 0.2 µg/mL (≈ 0.6 µM) | 0.7 µg/mL (≈ 2.1 µM) | > 200 µg/mL | > 400 µg/mL | ≥ 200 µg/mL | dependent on a virus-specific thymidine kinase | –
4 | Nc1ncnc2c1ncn2[C@@H]1CO[C@H](CO)[C@@H](O)C1 [Compound 10, 1,5-Anhydro-2-(adenin-9-yl) 2,3-dideoxy-D-arabinohexitol] | 7 µg/mL (≈ 26.4 µM) | – | 7 µg/mL (≈ 26.4 µM) | – | 20 µg/mL (≈ 75.4 µM) | – | – | > 400 µg/mL | – | – | –
5 | Nc1nc(O)c2ncn([C@@H]3CO[C@H](CO)[C@@H](O)C3)c2n1 [Compound 13, 1,5-Anhydro-2-(guanin-9-yl)-2,3-dideoxy-D-arabinohexitol] | 0.2 µg/mL (≈ 0.711 µM) | – | 0.1 µg/mL (≈ 0.356 µM) | – | 2 µg/mL (≈ 7.11 µM) | – | – | > 400 µg/mL | – | – | –
6 | Cc1cn([C@@H]2CO[C@H](CO)[C@@H](O)C2)c(=O)[nH]c1=O [Compound 17, 1,5-Anhydro-2,3-dideoxy2-(thymin-1-yl)-D-arabinohexitol] | 40 µg/mL (≈ 156 µM) | – | 150 µg/mL (≈ 585 µM) | – | > 200 µg/mL | – | – | > 400 µg/mL | – | – | –
7 | O=c1[nH]c(=O)n([C@@H]2CO[C@H](CO)[C@@H](O)C2)cc1I [Compound 18, 1,5-Anhydro-2,3-dideoxy-2-(5-iodouracil-1-yl)-D-arabino-hexitol] | 0.07 µg/mL (≈ 0.19 µM) | – | 0.07 µg/mL (≈ 0.19 µM) | – | 150 µg/mL (≈ 407 µM) | – | – | > 400 µg/mL | – | – | especially advantageous anti-herpes simplex (1 and 2) activity
8 | Nc1ccn([C@@H]2CO[C@H](CO)[C@@H](O)C2)c(=O)n1 [Compound 20, 1,5-Anhydro-2-(cytosin-1-yl)-2,3-dideoxy-D-arabinohexitol] | 0.7 µg/mL (≈ 2.9 µM) | – | 0.04 µg/mL (≈ 0.166 µM) | – | 0.7 µg/mL (≈ 2.9 µM) | – | – | > 400 µg/mL | – | – | –
9 | CCc1cn([C@@H]2CO[C@H](CO)[C@@H](O)C2)c(=O)[nH]c1=O [Compound 23, 1,5-Anhydro-2,3-dideoxy-2-(5-ethyluracil-1-yl)-D-arabinohexitol] | – | < 0.04 µg/mL | – | 0.2 µg/mL (≈ 0.74 µM) | – | > 200 µg/mL | > 200 µg/mL | – | > 200 µg/mL | – | especially advantageous anti-herpes simplex (1 and 2) activity
10 | O=c1[nH]c(=O)n([C@H]2C[C@H](O)[C@@H](CO)O2)cc1I [IDU, 5-iodo-2'-deoxyuridine] | 0.2 µg/mL (≈ 0.565 µM) | – | 0.2 µg/mL (≈ 0.565 µM) | – | 0.2 µg/mL (≈ 0.565 µM) | – | – | > 400 µg/mL | – | dependent on a virus-specific thymidine kinase | –
11 | NC(=O)c1ncn(C2O[C@H](CO)[C@@H](O)[C@H]2O)n1 (stereo partly drawn) [Ribavirin, 1-ribofuranosyl-3-carbamoyl-1,2,4-triazol] | 70 µg/mL (≈ 287 µM) | 200 µg/mL (≈ 819 µM) | 70 µg/mL (≈ 287 µM) | > 400 µg/mL | – | 70 µg/mL (≈ 287 µM) | 20 µg/mL (≈ 81.9 µM) | > 400 µg/mL | > 400 µg/mL | – | –
